Experimental data reported in ChEMBL document CHEMBL1121931, “Synthesis and pharmacological evaluation of conformationally restricted phenothiazine analogues” (J Med Chem, 1982).

What was measured:
Dopamine receptor = Dopamine receptor (Bos taurus, UniProt Q95136+P20288); test: Compound was tested for its ability to displace [3H]spiroperidol from dopamine receptor; type: protein assay
Rattus norvegicus [1] = species on record: Rattus norvegicus; test: Compound's potency to increase the level of the dopamine metabolite homovanillic acid (HVA), levels in male wistar rats at 0.54 ug/g dose; type: functional
Rattus norvegicus [2] = species on record: Rattus norvegicus; test: Compound's potency to increase the level of the dopamine metabolite DOPAC levels in male wistar rats at 0.95 ug/g dose; type: functional
Rattus norvegicus [3] = species on record: Rattus norvegicus; test: Compound's potency to increase the level of the dopamine metabolite DOPAC levels in male wistar rats at 1.26 ug/g dose; type: functional
Rattus norvegicus [4] = species on record: Rattus norvegicus; test: Compound's potency to increase the level of the dopamine metabolite homovanillic acid (HVA), levels in male wistar rats at 1.10 ug/g dose; type: functional
Rattus norvegicus [5] = species on record: Rattus norvegicus; test: Compound's potency to increase the level of the dopamine metabolite homovanillic acid (HVA), levels in male wistar rats at 0.39 ug/g dose; type: functional
Rattus norvegicus [6] = species on record: Rattus norvegicus; test: Compound's potency to increase the level of the dopamine metabolite DOPAC levels in male wistar rats at 0.62 ug/g dose; type: functional
Rattus norvegicus [7] = species on record: Rattus norvegicus; test: Compound's potency to increase the level of the dopamine metabolite homovanillic acid (HVA), levels in male wistar rats at 0.44 ug/g dose; type: functional
Rattus norvegicus [8] = species on record: Rattus norvegicus; test: Compound's potency to increase the level of the dopamine metabolite DOPAC levels in male wistar rats at 0.73 ug/g dose; type: functional
Rattus norvegicus [9] = species on record: Rattus norvegicus; test: Compound's potency to increase the level of the dopamine metabolite DOPAC levels in male wistar rats at 0.6 ug/g dose; type: functional
Rattus norvegicus [10] = species on record: Rattus norvegicus; test: Compound's potency to increase the level of the dopamine metabolite DOPAC levels in male wistar rats at 1.15 ug/g dose; type: functional
Rattus norvegicus [11] = species on record: Rattus norvegicus; test: Compound's potency to increase the level of the dopamine metabolite homovanillic acid (HVA), levels in male wistar rats at 0.63 ug/g dose; type: functional

Which IC50 (Dopamine receptor) does the source give for `CN(C)CC1Cc2cccc3c2N(C1)c1cc(Cl)ccc1S3` (stereo not given) here?
The IC50 was 13000 nM.

And the Control (Rattus norvegicus [1])?
Its Control is 70%.

What about the Control (Rattus norvegicus [2]) of the same molecule?
Its Control is 89%.

How did the IC50 (Dopamine receptor) turn out when `CN(C)CC1Cc2c(Cl)ccc3c2N(C1)c1ccccc1S3` (stereo not given) was run?
The IC50 was 1200 nM.

What about the Control (Rattus norvegicus [3]) of the same molecule?
Its Control is 118%.

What about the Control (Rattus norvegicus [4]) of the same molecule?
The Control was 157%.

Which Control (Rattus norvegicus [5]) does the source give for `CN(C)C1CCN2c3cc(Cl)ccc3Sc3cccc1c32` (stereo not given) here?
The Control was 88%.

And the Control (Rattus norvegicus [6])?
The Control was 98%.

`CN(C)C1CCN2c3ccccc3Sc3ccc(Cl)c1c32` (stereo not given) was tested. Which Control (Rattus norvegicus [7]) did it give?
Its Control is 100%.

What about the Control (Rattus norvegicus [8]) of the same molecule?
Its Control is 115%.

How did the Control (Rattus norvegicus [7]) turn out when `CN(C)C1CCN2c3ccccc3Sc3cccc1c32` (stereo not given) was run?
The Control was 93%.

What about the Control (Rattus norvegicus [9]) of the same molecule?
The Control was 95%.

`CN(C)CC1Cc2cccc3c2N(C1)c1ccccc1S3` (stereo not given) was tested. Which IC50 (Dopamine receptor) did it give?
Its IC50 is 0.0014 nM.

What about the Control (Rattus norvegicus [10]) of the same molecule?
The Control was 107%.

What about the Control (Rattus norvegicus [11]) of the same molecule?
The Control was 90%.
